{"source": "patent US5665736A", "about": "“N-benzoylmethyl-piperidines” (priority 1995, dated 1997)", "test_system": "mice", "test": "Irwin test in mice, oral administration", "type": "in vivo", "from_the_text": "These findings are most important, since the safety range of the compounds of this invention makes them be highly useful for their clinical application.", "note": "Where a name gives a salt, the structure may show the parent alone."}
{"smiles": "Fc1ccc([C@@H]2CCNC[C@H]2COc2ccc3c(c2)OCO3)cc1", "note": "[Paroxetine, (-)-trans-4-(p-fluorophenyl)-3-[[3,4-(methylenedioxy)phenoxy]methyl]-piperidine, reference compound]", "values": [{"measurement": "signs of toxicity, Irwin test", "setting": "400 mg/kg", "value": "convulsions, mydriasis and Straub tail"}]}
{"smiles": "O=C(CN1CC[C@@H](c2ccc(F)cc2)[C@H](COc2ccc3c(c2)OCO3)C1)c1ccc(F)cc1", "note": "[Example 1, (-)-Trans-N-p-fluorobenzoylmethyl-4-(p-fluorophenyl)-3-[[3,4-(methylenedioxy)phenoxy]methyl]-piperidine hydrochloride]", "values": [{"measurement": "signs of toxicity, Irwin test", "setting": "600 mg/kg", "value": "did not show any sign of toxicity"}]}
{"smiles": "O=C(CN1CC[C@@H](c2ccc(F)cc2)[C@H](COc2ccc3c(c2)OCO3)C1)c1ccc(Cl)cc1", "note": "[Example 2, (-)-Trans-N-p-chlorobenzoylmethyl-4-(p-fluorophenyl)-3-[[3,4-(methylenedioxy)phenoxy]methyl]-piperidine hydrochloride]", "values": [{"measurement": "signs of toxicity, Irwin test", "setting": "800 mg/kg", "value": "merely the onset of manifestations of hyperactivity was observed"}]}
